In patent US6281169A, “Aqueous suspensions of low solubility and low stability water additives” (BioLab Services, Inc., priority 1999, dated 2001):
Read-outs that look alike come from different tables or passages of the source.

Key:
E. coli (ATCC #11229) = experiment: Biocidal efficacy, AOAC Official Method 965.13, gram-negative bacteria; format: cell-based
Protocol: (§1) The biocidal efficacy of dissolved BCDMH was compared to sodium hypochlorite using AOAC Official Method 965.13 (1995 Edition)--Disinfectant (Water) for Swimming Pools against the gram-negative bacteria E. coli (ATCC #11229) and the gram-positive bacteria Strep. faecalis (ATCC #6569). The desired nominal biocide dosage (0, 0.1, 0.3, 0.6 or 0.9 mg/l total halogen expressed as chlorine) was established by dilution from freshly prepared (filtered) standardized stock solutions of either BCDMH Powder or NaOCl into phosphate buffered water (approximate pH of 7.5 as described in the method). An inoculum was standardized to yield 2×10^8 organisms per ml. One ml of the standardized inoculum was mixed into 199 ml of phosphate buffered water containing the desired dosage of biocide. One-ml aliquots were removed at specific times (30, 60, 120 and 180 seconds after inoculum addition) and added, with mixing, into separate tubes containing 9 ml of thiosulfate solution to neutralize the oxidizing halogen. Five 1 ml aliquots of from each neutralization tube were then added and mixed into five separate tubes each containing 9 ml of subculture broth. After 48 hours of incubation, these were examined to determine growth or no growth in the subculture medium. […]

[1] = test system: Strep. faecalis (ATCC #6569); experiment: Biocidal efficacy, AOAC Official Method 965.13, gram-positive bacteria; format: cell-based
Protocol: as §1

bacteria = experiment: Biocidal efficacy comparison, both bacteria (in words); format: cell-based, E. coli; Strep. faecalis; conditions: compared with NaOCl, predissolved BCDMH or other Examples
Protocol: The biocidal efficacy of dissolved BCDMH was compared to sodium hypochlorite using AOAC Official Method 965.13 (1995 Edition)--Disinfectant (Water) for Swimming Pools against the gram-negative bacteria E. coli (ATCC #11229) and the gram-positive bacteria Strep. faecalis (ATCC #6569). The desired nominal biocide dosage (0, 0.1, 0.3, 0.6 or 0.9 mg/l total halogen expressed as chlorine) was established by dilution from freshly prepared (filtered) standardized stock solutions of either BCDMH Powder or NaOCl into phosphate buffered water (approximate pH of 7.5 as described in the method). An inoculum was standardized to yield 2×10^8 organisms per ml. One ml of the standardized inoculum was mixed into 199 ml of phosphate buffered water containing the desired dosage of biocide. One-ml aliquots were removed at specific times (30, 60, 120 and 180 seconds after inoculum addition) and added, with mixing, into separate tubes containing 9 ml of thiosulfate solution to neutralize the oxidizing halogen. Five 1 ml aliquots of from each neutralization tube were then added and mixed into five separate tubes each containing 9 ml of subculture broth. After 48 hours of incubation, these were examined to determine growth or no growth in the subculture medium.
The efficacy of this preparation was tested as described in Example 1 except that no stock solution of the preparation was made. […]

[2] = cited from earlier work
[3] = cited from earlier work; for hydrolytic stability (in words): background
[4] = background; cited from earlier work
[5] = 0.1 ppm total halogen as Cl2, 30 sec
[6] = 0.1 ppm total halogen as Cl2, 60 sec
[7] = 0.1 ppm total halogen as Cl2, 120 sec
[8] = 0.1 ppm total halogen as Cl2, 180 sec
[9] = 0.3 ppm total halogen as Cl2, 30 sec
[10] = 0.3 ppm total halogen as Cl2, 60 sec
[11] = 0.3 ppm total halogen as Cl2, 120 sec
[12] = 0.3 ppm total halogen as Cl2, 180 sec
[13] = 0.6 ppm total halogen as Cl2, 30 sec
[14] = 0.6 ppm total halogen as Cl2, 60 sec
[15] = 0.6 ppm total halogen as Cl2, 120 sec
[16] = 0.6 ppm total halogen as Cl2, 180 sec
[17] = 0.9 ppm total halogen as Cl2, 30 sec
[18] = 0.9 ppm total halogen as Cl2, 60 sec
[19] = 0.9 ppm total halogen as Cl2, 120 sec
[20] = 0.9 ppm total halogen as Cl2, 180 sec

SMILES | Number of Tubes Exhibiting Growth (E. coli (ATCC #11229); [5]) | Number of Tubes Exhibiting Growth (E. coli (ATCC #11229); [6]) | Number of Tubes Exhibiting Growth (E. coli (ATCC #11229); [7]) | Number of Tubes Exhibiting Growth (E. coli (ATCC #11229); [8]) | Number of Tubes Exhibiting Growth (E. coli (ATCC #11229); [9]) | Number of Tubes Exhibiting Growth (E. coli (ATCC #11229); [10]) | Number of Tubes Exhibiting Growth (E. coli (ATCC #11229); [11]) | Number of Tubes Exhibiting Growth (E. coli (ATCC #11229); [12]) | Number of Tubes Exhibiting Growth (E. coli (ATCC #11229); [13]) | Number of Tubes Exhibiting Growth (E. coli (ATCC #11229); [14]) | Number of Tubes Exhibiting Growth (E. coli (ATCC #11229); [15]) | Number of Tubes Exhibiting Growth (E. coli (ATCC #11229); [16]) | Number of Tubes Exhibiting Growth [1, 5] | Number of Tubes Exhibiting Growth [1, 6] | Number of Tubes Exhibiting Growth [1, 7] | Number of Tubes Exhibiting Growth [1, 8] | Number of Tubes Exhibiting Growth [1, 9] | Number of Tubes Exhibiting Growth [1, 10] | Number of Tubes Exhibiting Growth [1, 11] | Number of Tubes Exhibiting Growth [1, 12] | further results
CC1(C)C(=O)N(Cl)C(=O)N1Br [BCDMH, bromochlorodimethylhydantoin] | 5 Tubes (Out of 5) | 5 Tubes (Out of 5) | 5 Tubes (Out of 5) | 5 Tubes (Out of 5) | 5 Tubes (Out of 5) | 5 Tubes (Out of 5) | 5 Tubes (Out of 5) | 5 Tubes (Out of 5) | 0 Tubes (Out of 5) | 0 Tubes (Out of 5) | 0 Tubes (Out of 5) | 0 Tubes (Out of 5) | 5 Tubes (Out of 5) | 5 Tubes (Out of 5) | 5 Tubes (Out of 5) | 5 Tubes (Out of 5) | 5 Tubes (Out of 5) | 5 Tubes (Out of 5) | 4 Tubes (Out of 5) | 1 Tubes (Out of 5) | Number of Tubes Exhibiting Growth (E. coli (ATCC #11229); [17]): 0 Tubes (Out of 5); Number of Tubes Exhibiting Growth (E. coli (ATCC #11229); [18]): 0 Tubes (Out of 5); Number of Tubes Exhibiting Growth (E. coli (ATCC #11229); [19]): 0 Tubes (Out of 5); Number of Tubes Exhibiting Growth (E. coli (ATCC #11229); [20]): 0 Tubes (Out of 5); Number of Tubes Exhibiting Growth [1, 13]: 0 Tubes (Out of 5); Number of Tubes Exhibiting Growth [1, 14]: 0 Tubes (Out of 5); Number of Tubes Exhibiting Growth [1, 15]: 0 Tubes (Out of 5); Number of Tubes Exhibiting Growth [1, 16]: 0 Tubes (Out of 5); Number of Tubes Exhibiting Growth [1, 17]: 0 Tubes (Out of 5); Number of Tubes Exhibiting Growth [1, 18]: 0 Tubes (Out of 5); Number of Tubes Exhibiting Growth [1, 19]: 0 Tubes (Out of 5); Number of Tubes Exhibiting Growth [1, 20]: 0 Tubes (Out of 5); biocidal efficacy (in words) (bacteria): approximately the same; water solubility ([2]; 20° C.): approximately 1,500 mg/liter; hydrolytic stability (in words) [3]: not hydrolytically stable; dissolving behaviour (in words) [4]: dissolves slowly
O=[N+]([O-])C(Br)=Cc1ccco1 [BNEF, 2-(2-bromo-2-nitro)-ethenyl furan] |  |  |  |  |  |  |  |  |  |  |  |  |  |  |  |  |  |  |  |  | solubility in water ([2]; 25° C.): 300 ppm; decomposition half-life ([3]; pH 4, 50° C.): 2.33 h; decomposition half-life ([3]; pH 4, 60° C.): 1.77 h; decomposition half-life ([3]; pH 4, 70° C.): 0.817 h; decomposition half-life ([3]; pH 5, 25° C.): 71 h; decomposition half-life ([3]; pH 6, 25° C.): 37 h; decomposition half-life ([3]; pH 9, 25° C.): 6 h
O=c1[nH]c(=O)[nH]c(=O)[nH]1 [CYA, S-triazine-2,4,6-trione] |  |  |  |  |  |  |  |  |  |  |  |  |  |  |  |  |  |  |  |  | solubility in water ([2]; 20° C.): approximately 2700 ppm; dissolving behaviour (in words) [4]: fairly tough to dissolve
[Na+].[O-]Cl [NaOCl, sodium hypochlorite] | 5 Tubes (Out of 5) | 5 Tubes (Out of 5) | 5 Tubes (Out of 5) | 5 Tubes (Out of 5) | 5 Tubes (Out of 5) | 5 Tubes (Out of 5) | 3 Tubes (Out of 5) | 1 Tubes (Out of 5) | 0 Tubes (Out of 5) | 0 Tubes (Out of 5) | 0 Tubes (Out of 5) | 0 Tubes (Out of 5) | 5 Tubes (Out of 5) | 5 Tubes (Out of 5) | 5 Tubes (Out of 5) | 5 Tubes (Out of 5) | 5 Tubes (Out of 5) | 5 Tubes (Out of 5) | 5 Tubes (Out of 5) | 5 Tubes (Out of 5) | Number of Tubes Exhibiting Growth [1, 13]: 0 Tubes (Out of 5); Number of Tubes Exhibiting Growth [1, 14]: 0 Tubes (Out of 5); Number of Tubes Exhibiting Growth [1, 15]: 0 Tubes (Out of 5); Number of Tubes Exhibiting Growth [1, 16]: 0 Tubes (Out of 5); biocidal efficacy (in words) (bacteria): approximately the same
CCNc1nc(Cl)nc(NC(C)(C)C)n1 [terbuthylazine, 2-(tert-butylamino)-4-chloro-6-(ethylamino)-s-triazine] |  |  |  |  |  |  |  |  |  |  |  |  |  |  |  |  |  |  |  |  | solubility in water ([2]; 25° C.): 11.5 ppm; hydrolytic stability (in words) [3]: good hydrolytic stability; degradation half life ([3]; pH 5): 73 days; degradation half life ([3]; pH 9): 194 days
